Assay results from patent US8409649B2, “Off-note blocking sensory organic compounds” (Givaudan S.A., priority 2007, dated 2013).
pIC50: −log10 of the molar value. Like-named read-outs stand apart in the source and are kept apart here.

Columns and labels:
[1] = molecular target: T1, human TAS2R44 bitter taste receptor (Homo sapiens, UniProt P59538, L162M); assay: TAS2R44 bitter taste receptor assay for IC50 determination (Fluo-4 calcium assay); assay type: cell-based; settings: for pIC50: agonist not stated, read-out: IC50 when tested with the TAS2R44 bitter taste receptor
T1 construct: The TAS2R44 construct contains RSS tag, TAS2R44, and the HSV tag which are fused in frame; expressed in transfected cells; host or cells: HEK293T/Galpha16-gustducin44 cells, stably transfected with pcDNA3.1Zeo-TAS2R44
T1 sequence (P59538 with tags, fused parts or gaps L162M): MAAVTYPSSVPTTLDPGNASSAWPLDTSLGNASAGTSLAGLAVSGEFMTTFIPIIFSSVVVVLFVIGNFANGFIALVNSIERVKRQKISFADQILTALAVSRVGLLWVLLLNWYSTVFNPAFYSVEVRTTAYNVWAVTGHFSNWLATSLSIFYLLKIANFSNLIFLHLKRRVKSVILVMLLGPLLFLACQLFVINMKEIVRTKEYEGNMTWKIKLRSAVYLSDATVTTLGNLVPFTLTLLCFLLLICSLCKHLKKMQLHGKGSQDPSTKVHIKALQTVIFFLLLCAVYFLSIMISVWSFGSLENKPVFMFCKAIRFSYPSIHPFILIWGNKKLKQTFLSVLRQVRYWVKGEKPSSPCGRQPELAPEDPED
Protocol: A receptor screen with concentration-response analysis was performed and from results inhibitory concentration (IC) IC50 values can be calculated by nonlinear regression using the function f(x)=(a−d)/(1+(x/C)^nh)+d; with a=minimum signal, d=maximum signal, nh=hill coefficient, C=IC50. and x=concentration of antagonist.
IC50 is the molar concentration of an antagonist which produces 50% of the maximum possible inhibitory response for that antagonist.
The full length gene of human TAS2R44 was amplified by polymerase chain reaction (PCR) using gene-specific primers that span the entire coding region as described in WO 2004/029087.
The TAS2R44 cDNA was subcloned into an expression cassette based on either of the following plasmids/expression vectors: pcDNA3.1Zeo (Invitrogen). These vectors contain within their multiple cloning sites the nucleotide sequence coding for the first 45 amino acids of the rat somatostatin receptor subtype 3 (RSS tag) to facilitate cell surface targeting of the transgene (SEQ ID #4) and the nucleotide sequence coding for the herpes simplex virus (HSV) glycoprotein D epitope (HSV epitope in aminoterminal to carboxyterminal direction, HSV tag). (SEQ ID #3) for facilitating immunocytochemical detection.
The TAS2R44 construct contains RSS tag, TAS2R44, and the HSV tag which are fused in frame to allow translation into the receptor protein and the resulting receptor cDNA. This transfected expression vector is called pcDNA3.1Zeo-TAS2R44 (SEQ ID #1) and allows for expression of the TAS2R44 protein (SEQ ID #2).
A cell line that stably expresses the human bitter taste receptor (TAS2R44) was generated by transfecting pcDNA3.1Zeo-TAS2R44 into HEK293T/Gα16-gustducin 44 cells (both formed as described in under 1) above. The host cell line HEK-293T is commercially available from the American […] (catalog #CRL-1573).
Fluo-4 AM (Invitrogen) is a fluorescent indicator of intracellular calcium dynamics (change in concentration) and allows monitoring changes in the calcium concentration, particularly an increase in response to receptor activation occurring after agonist exposure.
At day 0, the HEK293T cell line stably expressing Gα16-gustducin44 and TAS2R44 formed as described under 2) was seeded in antibiotic-free growth medium (standard DMEM with 10% (v/v) heat-inactivated fetal bovine serum, 2 mM L-glutamine […]) into black wall/clear bottom 96-well plates, coated with poly(ethylenimine) (0.005% v/v) at a concentration of 15,000 cells per well and incubated for 48 hours in humidified atmosphere (37° C., 5% CO2).
At the time of the assay, the growth medium was discarded and the cells were further incubated in a humidified atmosphere (37° C., 5% CO2) for 1 hour with 50 μl of loading buffer consisting of 1.5 μM Fluo-4 AM and 2.5 μM probenicid (Sigma-Aldrich) in DMEM.
Afterwards, the 96-well plate was washed 5 times with 200 μl of assay buffer (130 mM NaCl, 5 mM KCl, 10 mM HEPES, 2 mM CaCl2, and 5 mM dextrose, pH 7.4) per well, using an automated plate washer (BioTek). The plate was further incubated for 30 minutes at room temperature in the dark to allow for complete de-esterification of the Fluo-4. Afterwards the plate was washed 5 times with 200 μl of assay buffer per well, and reconstituted with 180 μl of assay buffer per well.
For assay reading, the plate was placed in a Fluorometric Imaging Plate Reader (FLIPR) (FLIPR-TETRA™, Molecular Devices), and receptor activation was initiated by addition of 20 μl of a tenfold concentrated agonist stock solution (to give the desired agonist end concentration when added to the 180 microliter assay buffer volume), which was prepared in assay buffer.
Fluorescence was continuously monitored for 20 seconds to give a signal baseline (averaged to give F0) prior to agonist addition and for 120 seconds after agonist addition. […]

[2] = system: panel of bitter sensitive individuals; assay: Sensory evaluation, forced choice test in water with sucralose; assay type: in vivo; settings: 13 ppm in water with sucralose 1 mM, 3 mM, 7 mM
Protocol: The bitter blocker (13 ppm) was tested in water with sucralose in concentrations of 1 mM, 3 mM, and 7 mM by a panel of bitter sensitive individuals (15) in two replications per each concentration. The samples were compared to negative controls without bitter blocker and panelists were instructed to choose the less bitter sample in a forced choice test.

Structure (SMILES) | pIC50 [1] | IC50 ([1]; sucralose (50 mM) as agonist, same range as example 4) | effect on bitterness vs negative control without bitter blocker [2] | panelists that chose the sample with bitter blocker as less bitter ([2]; forced choice, 15 individuals, two replications)
CC1(C(=O)O)CC1CC1CC2CC2(C)C1(C)C (stereo not shown) [1-methyl-2-((1,2,2-trimethylbicyclo[3.1.0]hexan-3-yl)methyl)cyclopropanecarboxylic acid] | 4.70 to 7.00 | – | – | –
CC1=CCC(C/C=C/C(=O)O)C1(C)C (stereo not shown) [4-(2,2,3-trimethylcyclopent-3-enyl)but-2-enoic acid] | 4.70 to 7.00 | within the same range | significantly reduce bitterness | 22/30
CC1CCCC(C)(C)C1CCCC(=O)O (stereo not shown) [4-(2,2,6-trimethylcyclohexyl)butanoic acid] | 4.70 to 7.00 | – | – | –

Now from value to compound, other results behind:

pIC50 [1] | IC50 ([1]; sucralose (50 mM) as agonist, same range as example 4) | Structure (SMILES) | effect on bitterness vs negative control without bitter blocker [2] | panelists that chose the sample with bitter blocker as less bitter ([2]; forced choice, 15 individuals, two replications)
4.70 to 7.00 | – | CC1CCC(CC(=O)O)CC1C (stereo not shown) [2-(3,4-dimethylcyclohexyl)acetic acid] | – | –
4.70 to 7.00 | – | CC1=CCCC(C)(C)C1CCC(C)C(=O)O (stereo not shown) [2-methyl-4-(2,6,6-trimethylcyclohex-2-enyl)butanoic acid] | – | –
4.70 to 7.00 | – | CC1CCCC(C)(C)C1CCC(=O)O (stereo not shown) [3-(2,2,6-trimethylcyclohexyl)propanoic acid] | – | –
4.70 to 7.00 | – | CC1CCC(CCCC(=O)O)C1(C)C (stereo not shown) [4-(2,2,3-trimethylcyclopentyl)butanoic acid] | – | –
